Data reported in ChEMBL document CHEMBL1201862, “PubChem BioAssay data set” (2004).
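Values below derive from 48-hour exposures of cells grown in 96-well plates, with endpoints linearly interpolated between the two concentrations bracketing the appropriate inhibition level. At the GI50, growth is halved.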 Active and inactive are the calls of the source. Cut-off read from the data, not from the text of the source: active = GI50 up to about 1.1 µM and inactive = higher.

Tests used:
Assay in all cases: DTP human tumour cell line panel, 48 h
M14 = tested on: M14
COLO 205 = tested on: COLO 205
Malme-3M = tested on: Malme-3M
OVCAR-4 = tested on: OVCAR-4
XF498 = tested on: XF498
RXF 631 = tested on: RXF 631
SK-MEL-28 = tested on: SK-MEL-28
LOX IMVI = tested on: LOX IMVI
SNB-78 = tested on: SNB-78
SF-268 = tested on: SF-268
SK-MEL-5 = tested on: SK-MEL-5
OVCAR-3 = tested on: OVCAR-3
OVCAR-8 = tested on: OVCAR-8
LXFL 529 = tested on: LXFL 529
OVCAR-5 = tested on: OVCAR-5
HCC 2998 = tested on: HCC 2998
NCI-H226 = tested on: NCI-H226
DMS-114 = tested on: DMS-114
NCI-H522 = tested on: NCI-H522
NCI-H23 = tested on: NCI-H23
CAKI-1 = tested on: CAKI-1
KM-20L2 = tested on: KM-20L2
IGROV-1 = tested on: IGROV-1
UO-31 = tested on: UO-31
HCT-116 = tested on: HCT-116
A549 = tested on: A549
DMS-273 = tested on: DMS-273
HT-29 = tested on: HT-29
SNB-19 = tested on: SNB-19
MOLT-4 = tested on: MOLT-4
TK-10 = tested on: TK-10
HOP-18 = tested on: HOP-18
UACC-62 = tested on: UACC-62
ACHN = tested on: ACHN
786-0 = tested on: 786-0
RPMI-8226 = tested on: RPMI-8226
DLD-1 = tested on: DLD-1
M19-MEL = tested on: M19-MEL
HCT-15 = tested on: HCT-15
HOP-62 = tested on: HOP-62
SNB-75 = tested on: SNB-75
SW-620 = tested on: SW-620
SR = tested on: SR
NCI-H460 = tested on: NCI-H460
SK-MEL-2 = tested on: SK-MEL-2
SN12C = tested on: SN12C
KM12 = tested on: KM12
U-251 = tested on: U-251
RXF 393 = tested on: RXF 393
K562 = tested on: K562
SF-539 = tested on: SF-539
SF-295 = tested on: SF-295

Question: With `O=C(c1ccccc1)[C@H]1Nc2ccc(Cl)cc2[C@H]2CCC[C@@H]12` as the molecule, how does the GI50 (M14) read?
Answer: 11.7 µM (inactive)

Question: And the GI50 (COLO 205)?
Answer: 25.1 µM (inactive)

Question: And the GI50 (Malme-3M)?
Answer: 22 µM (inactive)

Question: And the GI50 (OVCAR-4)?
Answer: 26.2 µM (inactive)

Question: What about the GI50 (XF498) of the same molecule?
Answer: 17.1 µM (inactive)

Question: And the GI50 (RXF 631)?
Answer: 36.1 µM (inactive)

Question: What about the GI50 (SK-MEL-28) of the same molecule?
Answer: 19.4 µM (inactive)

Question: What about the GI50 (LOX IMVI) of the same molecule?
Answer: 6.85 µM (inactive)

Question: What about the GI50 (SNB-78) of the same molecule?
Answer: 51.3 µM (inactive)

Question: What about the GI50 (SF-268) of the same molecule?
Answer: 31.7 µM (inactive)

Question: What about the GI50 (SK-MEL-5) of the same molecule?
Answer: 10.3 µM (inactive)

Question: And the GI50 (OVCAR-3)?
Answer: 27.2 µM (inactive)

Question: What about the GI50 (OVCAR-8) of the same molecule?
Answer: 23.3 µM (inactive)

Question: And the GI50 (LXFL 529)?
Answer: 17.9 µM (inactive)

Question: What about the GI50 (OVCAR-5) of the same molecule?
Answer: 23.7 µM (inactive)

Question: And the GI50 (HCC 2998)?
Answer: 30.5 µM (inactive)

Question: What about the GI50 (NCI-H226) of the same molecule?
Answer: 13.6 µM (inactive)

Question: And the GI50 (DMS-114)?
Answer: 23.6 µM (inactive)

Question: And the GI50 (NCI-H522)?
Answer: 23.3 µM (inactive)

Question: What about the GI50 (NCI-H23) of the same molecule?
Answer: 23.9 µM (inactive)

Question: And the GI50 (CAKI-1)?
Answer: 59.8 µM (inactive)

Question: What about the GI50 (KM-20L2) of the same molecule?
Answer: 26.9 µM (inactive)

Question: And the GI50 (IGROV-1)?
Answer: > 100 µM (inactive)

Question: What about the GI50 (UO-31) of the same molecule?
Answer: 17.8 µM (inactive)

Question: And the GI50 (HCT-116)?
Answer: 13.2 µM (inactive)

Question: And the GI50 (A549)?
Answer: 42 µM (inactive)

Question: What about the GI50 (DMS-273) of the same molecule?
Answer: 36.1 µM (inactive)

Question: What about the GI50 (HT-29) of the same molecule?
Answer: 21 µM (inactive)

Question: And the GI50 (SNB-19)?
Answer: > 100 µM (inactive)

Question: What about the GI50 (MOLT-4) of the same molecule?
Answer: 5.7 µM (inactive)

Question: And the GI50 (TK-10)?
Answer: 30.6 µM (inactive)

Question: And the GI50 (HOP-18)?
Answer: 12.3 µM (inactive)

Question: What about the GI50 (UACC-62) of the same molecule?
Answer: 25.8 µM (inactive)

Question: What about the GI50 (ACHN) of the same molecule?
Answer: 13.3 µM (inactive)

Question: What about the GI50 (786-0) of the same molecule?
Answer: 44.9 µM (inactive)

Question: What about the GI50 (RPMI-8226) of the same molecule?
Answer: 11.9 µM (inactive)

Question: And the GI50 (DLD-1)?
Answer: 21.8 µM (inactive)

Question: And the GI50 (M19-MEL)?
Answer: 27.6 µM (inactive)

Question: And the GI50 (HCT-15)?
Answer: 25.1 µM

Question: What about the GI50 (HOP-62) of the same molecule?
Answer: > 100 µM (inactive)

Question: What about the GI50 (SNB-75) of the same molecule?
Answer: 21.7 µM (inactive)

Question: What about the GI50 (SW-620) of the same molecule?
Answer: 27.9 µM (inactive)

Question: And the GI50 (SR)?
Answer: 7.21 µM (inactive)

Question: What about the GI50 (NCI-H460) of the same molecule?
Answer: 24.5 µM (inactive)

Question: And the GI50 (SK-MEL-2)?
Answer: 19.7 µM (inactive)

Question: What about the GI50 (SN12C) of the same molecule?
Answer: 14.6 µM (inactive)

Question: And the GI50 (KM12)?
Answer: 49.1 µM (inactive)

Question: And the GI50 (U-251)?
Answer: 35.6 µM (inactive)

Question: And the GI50 (RXF 393)?
Answer: 14.8 µM (inactive)

Question: What about the GI50 (K562) of the same molecule?
Answer: 15.4 µM (inactive)

Question: What about the GI50 (SF-539) of the same molecule?
Answer: 33.2 µM (inactive)

Question: And the GI50 (SF-295)?
Answer: 32.1 µM (inactive)
